Results as given in PMC6713104, “New peptide derived antimalaria and antimicrobial agents bearing sulphonamide moiety” (Journal of Enzyme Inhibition and Medicinal Chemistry, 2019).
In brackets after ≈: the same amount, converted by molar mass. Read-outs that look alike come from different tables or passages of the source. Blank lines part the entries; values can stand above or below the compound they belong to.

Experiments:
P. falciparum strain W2 = assay: In vitro antimalarial assay; assay type: cell-based; conditions: Plasmodium falciparum, W2; P. falciparum, 48 h, >99% of parasites inhibited from developing to schizonts
[1] = system: Plasmodium berghei infection in mice; assay: In vivo antimalaria test; conditions: P. berghei infected mice; for inhibition in vivo at 100 mg/kg / inhibition in vivo at 200 mg/kg: Plasmodium berghei, oral
Experimental: Experimental Design and Treatment of Mice. Methods of Peter et al.[30] and Kalra et al.[31] for antiplasmodial assay against Plasmodium berghei infection in mice with some modifications were employed. About eighty infected mice were randomly divided into five groups, each having […] mice. The inoculum was prepared from a donor mouse with rising parasitemia of 60.42%. After 7 days of infection, animals begin to receive treatment (100 and 200 mg/kg b wt.) of the synthesized compounds (7a–7n) for 12 days with constant check of the percentage of parasitemia after a 4-day interval. Artemisinin (100 and 200 mg/kg body weight.) was given to the other mice in group three as positive control, group four was not treated and group five was not infected. All the compounds and the drugs were given orally by using a standard intragastric tube. For all parasitemia determination, blood samples were collected from tail snip of each mouse and thin smears prepared and stained with 10% Giemsa solution. The uniform fields of each stained slide (for each mouse) were examined under microscope with an oil immersion objective of 100X magnification power and average percent of parasitemia was determined.
To determine the in vivo activity, the compounds were tested against P. berghei NK(65 Strain) infection mice., the animals were obtained from Nigeria institute for Trypanosoma and onchocercarioses Research (NTIR) Vom, Plateau State Nigeria. The permission and approval for the use of animals in this experiment were granted by the Animal Ethics Committee, Federal College of Vetrenary Medical Laboratory, Vom, Plateau State. Method of Peter et al.[30], for antiplasmodial assay against P. berghei in mice with some modification were employed. Artemisimin was used as treated control of the experiments. The percentage inhibition of parasite multiplication was calculated comparing the treated group with untreated group by means of the following formula[39] [(A − B)/A] × 100; where A = parasitaemia in the untreated group and B = parasitemia in the test group. […] Most of the compounds were active against P. berghei after 7 days post-infection by reducing the parasiteamia by at least 40% when in a dose of 100 mg/kg (Table 5). The inhibition of parasitaemia increased on 12th day post infection for almost all the compounds. […] However in consideration of the compounds ability to inhibit parasitaemia to the control drug. […] These compounds should be considered for further studies because of its promising activities.

K. pneumoniae = assay: Antimicrobial MIC, agar cup diffusion; assay type: cell-based; conditions: Klebsiella pneumoniae, read-out: MIC (minimum inhibitory concentration)
S. typhi = assay: Antimicrobial MIC, agar cup diffusion; assay type: cell-based; conditions: Salmonella enterica, read-out: MIC (minimum inhibitory concentration)
E. coli = assay: Antimicrobial MIC, agar cup diffusion; assay type: cell-based; conditions: Escherichia coli, read-out: MIC (minimum inhibitory concentration)
B. subtilis = assay: Antimicrobial MIC, agar cup diffusion; assay type: cell-based; conditions: for MIC: Bacillus subtilis, B. subtilis, read-out: MIC (minimum inhibitory concentration)
C. albicans = assay: Antimicrobial MIC, agar cup diffusion; assay type: cell-based; conditions: Candida albicans, read-out: MIC (minimum inhibitory concentration)
A. niger = assay: Antimicrobial MIC, agar cup diffusion; assay type: cell-based; conditions: Aspergillus niger, read-out: MIC (minimum inhibitory concentration)
[2] = Renal or kidney function test; assay type: in vivo; conditions: mice, 10 mg/kg
Description: (§1) Twenty-four hours before the injecting the compounds, the blood sample of five mice was taken and it was also taken after the last day of treatment, the animals were sacrificed by cervical dislocation and the blood samples were collected by heart puncture. The blood samples for haematological parameters (red blood cell (RBC) count, white blood cell (WBC) count, packed cell volume (PCV), and hemoglobin (HGB)) were collected into EDTA bottles and analyzed using an automated machine (Automated CBC Analyzer: Sysmex KX-21). Kidney function tests carried out with the blood of the rats fed with the sulfonamide derivatives were, creatinine and albunim. The method reported by Kaplan and Tengv[33] was used in the determination of creatinine.

Liver function tests = assay type: in vivo; conditions: mice, 10 mg/kg
Description: as §1, with “KX-21). The liver” for “KX-21). Kidney”, “derivatives were aspartate aminotransperase (AST), alanine transaminase (ALT)” for “derivatives were, creatinine”, “and alkaline phosphatase (ALP). Standard laboratory procedure according to Reitman” for “and albunim. The method reported by Kaplan”, “and Franke[32]” for “and Tengv[33]”, “used for” for “used in”, “of parameters.” for “of creatinine.”

Haematological analysis = assay type: in vivo, mice
Description: as §1, with “KX-21).” for “KX-21). Kidney function tests carried out with the blood of the rats fed with the sulfonamide derivatives were, creatinine and albunim. The method reported by Kaplan and Tengv[33] was used in the determination of creatinine.”
The blood samples for haematological parameters (red blood cell (RBC) count, white blood cell (WBC) count, packed cell volume (PCV), and haemoglobin (HGB)) were collected into EDTA bottles and analyzed using an automated machine (Automated CBC Analyzer: Sysmex KX-21) (Table 8). From the analysis, even though there is a decrease in the value of RBC, PCV and HB, it is observed that there is no significant changes in the parameters that were analyzed for the control and the test compounds.

[3] = 168 h, read-out: % inhibition 7 days post-treatment (100 mg/kg), day 7
[4] = 168 h, read-out: % inhibition 7 days post-treatment (200 mg/kg), day 7
[5] = 288 h, read-out: % inhibition 12 days post-treatment (100 mg/kg), day 12
[6] = 288 h, read-out: % inhibition 12 days post-treatment (200 mg/kg), day 12

MIC (P. falciparum strain W2): 0.72 µM (≈ 0.203 µg/mL)
Compound: C[C@@H]1CC[C@H]2[C@@H](C)C(=O)O[C@@H]3O[C@@]4(C)CC[C@@H]1[C@]32OO4 [Artemisinin, reference compound]
inhibition in vivo at 100 mg/kg [1, 3]: 75.7%
inhibition in vivo at 200 mg/kg [1, 4]: 78.9%
inhibition in vivo at 100 mg/kg [1, 5]: 86.2%
inhibition in vivo at 200 mg/kg [1, 6]: 82.3%

Compound: O=C(O)c1cn(C2CC2)c2cc(N3CCNCC3)c(F)cc2c1=O [CIP, Ciprofloxacin, reference compound]
MIC (K. pneumoniae): 113 µg/mL (≈ 341 µM)
MIC (S. typhi): 128 µg/mL (≈ 386 µM)
MIC (E. coli): 131 µg/mL (≈ 395 µM)
MIC (B. subtilis): 184 µg/mL (≈ 555 µM)

Compound: CC(NS(=O)(=O)c1ccccc1)C(=O)NCC(=O)Nc1cccc(Cl)c1 (stereo not shown) [Compound 7a, N-(2-((3-chlorophenyl)amino)-2-oxoethyl)-2-(phenylsulfonamido)propanamide]
MIC (C. albicans): 56.1 µg/mL (≈ 142 µM)
MIC (P. falciparum strain W2): 0.37 µM (≈ 0.146 µg/mL)
MIC (K. pneumoniae): 251 µg/mL (≈ 634 µM)
MIC (A. niger): 1580 µg/mL (≈ 4000 µM)
inhibition in vivo at 100 mg/kg [1, 3]: 36.2%
inhibition in vivo at 200 mg/kg [1, 4]: 52.1%
inhibition in vivo at 100 mg/kg [1, 5]: 50%
inhibition in vivo at 200 mg/kg [1, 6]: 61.4%
MIC (S. typhi): 199 µg/mL (≈ 503 µM)
MIC (E. coli): 489 µg/mL (≈ 1240 µM)
MIC (B. subtilis): 219 µg/mL (≈ 553 µM)

Compound: CC(NS(=O)(=O)c1ccccc1)C(=O)NCC(=O)Nc1ccccc1 (stereo not shown) [Compound 7f, N-(2-oxo-2-(phenylamino)ethyl)-2-(phenylsulfonamido)propanamide]
MIC (C. albicans): 214 µg/mL (≈ 592 µM)
MIC (P. falciparum strain W2): 2.32 µM (≈ 0.839 µg/mL)
MIC (K. pneumoniae): 5010 µg/mL (≈ 13900 µM)
MIC (A. niger): 105 µg/mL (≈ 290 µM)
inhibition in vivo at 100 mg/kg [1, 3]: 38.2%
inhibition in vivo at 200 mg/kg [1, 4]: 71%
inhibition in vivo at 100 mg/kg [1, 5]: 41.9%
inhibition in vivo at 200 mg/kg [1, 6]: 73.3%
MIC (S. typhi): 4680 µg/mL (≈ 12900 µM)
MIC (E. coli): 131 µg/mL (≈ 362 µM)
MIC (B. subtilis): 155 µg/mL (≈ 429 µM)
activity against Bacillus compared with ciprofloxacin (B. subtilis; in words): greater activity against Bacillus than ciprofloxacin

Compound: Cc1ccc(S(=O)(=O)NC(C)C(=O)NCC(=O)Nc2cccc(F)c2)cc1 (stereo not shown) [Compound 7j, N-(2-((3-fluorophenyl)amino)-2-oxoethyl)-2–(4-methylphenylsulfonamido)propanamide]
Albumin ([2]; After): 4.0 g/dL
Creatinine ([2]; After): 0.3 mg/dL
Albumin ([2]; Before): 3.9 g/dL
Creatinine ([2]; Before): 0.4 mg/dL
MIC (C. albicans): 371 µg/mL (≈ 943 µM)
MIC (P. falciparum strain W2): 0.88 µM (≈ 0.346 µg/mL)
MIC (K. pneumoniae): 83 µg/mL (≈ 211 µM)
ALT (Liver function tests; After): 25.5 µ/L
AST (Liver function tests; After): 60.0 µ/L
Bilirubin (Liver function tests; After): 0.2 mg/dL
T.P. (Liver function tests; After): 5.8 g/dL
ALT (Liver function tests; Before): 26.3 µ/L
AST (Liver function tests; Before): 65.0 µ/L
Bilirubin (Liver function tests; Before): 0.4 mg/dL
T.P. (Liver function tests; Before): 6.0 g/dL
ability to inhibit parasitaemia compared to the control drug ([1]; in words): almost the same or better activity compared to the artemisinin
inhibition in vivo at 100 mg/kg [1, 3]: 77.9%
inhibition in vivo at 200 mg/kg [1, 4]: 77.4%
inhibition in vivo at 100 mg/kg [1, 5]: 82.7%
inhibition in vivo at 200 mg/kg [1, 6]: 73.5%
MIC (S. typhi): 129 µg/mL (≈ 328 µM)
MIC (E. coli): 275 µg/mL (≈ 699 µM)
MIC (B. subtilis): 245 µg/mL (≈ 623 µM)
HB (Haematological analysis; After treatment): 10.0 g/dL
PCV (Haematological analysis; After treatment): 34%
RBC (Haematological analysis; After treatment): 6.5 × 10^6 mm^3
WBC (Haematological analysis; After treatment): 9.1 × 10^3 mm^3
HB (Haematological analysis; Before treatment): 13.5 g/dL
PCV (Haematological analysis; Before treatment): 39%
RBC (Haematological analysis; Before treatment): 7.1 × 10^6 mm^3
WBC (Haematological analysis; Before treatment): 8.0 × 10^3 mm^3

Compound: Cc1ccc(S(=O)(=O)NC(C)C(=O)NCC(=O)Nc2ccc(F)cc2)cc1 (stereo not shown) [Compound 7k, N-(2-((4-fluorophenyl)amino)-2-oxoethyl)-2–(4-methylphenylsulfonamido)propanamide]
MIC (C. albicans): 63.1 µg/mL (≈ 160 µM)
MIC (P. falciparum strain W2): 0.53 µM (≈ 0.209 µg/mL)
MIC (K. pneumoniae): 79 µg/mL (≈ 201 µM)
MIC (A. niger): 316 µg/mL (≈ 803 µM)
inhibition in vivo at 100 mg/kg [1, 3]: 40.4%
inhibition in vivo at 200 mg/kg [1, 4]: 54.9%
inhibition in vivo at 100 mg/kg [1, 5]: 44.3%
inhibition in vivo at 200 mg/kg [1, 6]: 56.4%
MIC (S. typhi): 3160 µg/mL (≈ 8030 µM)
MIC (E. coli): 316 µg/mL (≈ 803 µM)
MIC (B. subtilis): 371 µg/mL (≈ 943 µM)

MIC (C. albicans): 21.7 µg/mL (≈ 70.9 µM)
MIC (A. niger): 47.1 µg/mL (≈ 154 µM)
Compound: OC(Cn1cncn1)(Cn1cncn1)c1ccc(F)cc1F [FLU, Fluconazole, reference compound]
